Test results from patent publication US20090149482A1, “STEREOCHEMICALLY DEFINED DIPEPTIDE ESTERS OF ANTIVIRAL AGENTS FOR ENHANCED OCULAR TREATMENT” (priority 2001, published 2009).
Like-named read-outs stand apart in the source and are kept apart here.

How the values were obtained:
hPEPT1 = biological target: T1, hPEPT1 (Homo sapiens, UniProt P46059); assay: [3H] Glycylsarcosine uptake and its inhibition in Caco-2 cells (affinity towards peptide transporter); format: cell-based; conditions: for Ki: read-out: Ki
T1 construct: endogenous in cells; host or cells: Caco-2 (human colon carcinoma, ATCC)
T1 sequence (P46059 1-708): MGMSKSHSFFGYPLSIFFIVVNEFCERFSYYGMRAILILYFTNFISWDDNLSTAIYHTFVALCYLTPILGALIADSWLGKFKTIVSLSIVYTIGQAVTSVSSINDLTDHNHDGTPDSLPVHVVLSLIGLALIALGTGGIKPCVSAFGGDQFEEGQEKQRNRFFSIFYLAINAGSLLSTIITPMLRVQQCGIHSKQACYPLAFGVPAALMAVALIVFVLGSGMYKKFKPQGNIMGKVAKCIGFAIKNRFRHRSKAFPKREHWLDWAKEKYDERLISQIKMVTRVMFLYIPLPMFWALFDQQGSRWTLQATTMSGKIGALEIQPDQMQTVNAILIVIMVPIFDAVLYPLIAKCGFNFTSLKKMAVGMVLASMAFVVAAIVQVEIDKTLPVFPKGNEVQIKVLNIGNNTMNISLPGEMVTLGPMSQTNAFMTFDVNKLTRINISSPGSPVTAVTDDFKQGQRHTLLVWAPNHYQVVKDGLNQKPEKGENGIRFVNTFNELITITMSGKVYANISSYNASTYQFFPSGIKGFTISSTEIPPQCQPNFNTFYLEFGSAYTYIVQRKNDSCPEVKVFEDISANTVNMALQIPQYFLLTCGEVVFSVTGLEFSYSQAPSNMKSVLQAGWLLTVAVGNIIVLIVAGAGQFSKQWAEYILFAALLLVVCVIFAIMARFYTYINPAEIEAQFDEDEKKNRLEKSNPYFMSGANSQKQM
Source text: Materials: [^3H] Glycylsarcosine (Gly-Sar; 4 Ci/mmol) was purchased from Moravek Biochemicals (Brea, Calif.) and [^14C] Mannitol (50 mCi/mmol) was supplied by Amersham (Piscataway, N.J.). Human colon carcinoma derived Caco-2 cells were obtained from American Type Culture Collection (ATCC, Rockville, Md.). The growth medium, Dulbecco's modified Eagle Medium was obtained from Life Technologies (Grand Island, N.Y.). […] Fetal bovine serum (FBS) was purchased from JRH Biosciences (Lenexa, Kans.). Culture flasks (75 cm^2 growth area), polyester Transwells® (pore size 0.4 Cm with diameter 6.5 mm) and polyester membranes (pore size 0.4 Cm) were procured from Costar (Bedford, Mass.). The buffer components and solvents were obtained from Fisher Scientific (St. Louis, Mo.). All the di-peptide esters of acyclovir were custom synthesized in our laboratory. […] Cell Culture: All cultures were maintained in humidified incubator at 37° C. with a 5% carbon dioxide in air atmosphere. Caco-2 cells were obtained at passage 25 from American Type Culture Collection (ATCC) and grown in plastic tissue culture flasks. […] When 80% confluent, these cells were removed by treating them with Trypsin/EDTA and plated at a density of 100,000 cells/cm^2 on collagen coated plastic dishes containing clear polyester membranes (0.636 cm^2, […]) or 12-well tissue culture treated plastic plates. Cells were then grown in medium containing 10% FBS (heat-inactivated). […] [^14C] […] Metabolism studies in Cell Suspensions: Confluent Caco-2 cells, grown in tissue culture flasks were isolated with the aid of mechanical scraper and washed thrice with DPBS. […] One-hundred micro-liters of samples were withdrawn at predetermined time intervals and the sample was purified by precipitating the cellular proteins into the organic solvent mixture and stored at −80° C. until further analysis. The protein content of the cell suspension was determined by the method of Bradford using bovine serum albumin as the standard (BioRad protein estimation kit, Hercules, Calif.). […] Transport studies: Transport experiments were done using Side-Bi-Side™ diffusion cells (type VSC-1, Crown Glass Company Inc.) and Transwell® inserts. Prior to the experiment with Gly-Sar, Caco-2 cell monolayers grown on the clear polyester membranes and Transwell® inserts were washed with DPBS (pH 6.0) and incubated at 37° C. Freshly prepared drug solutions in DPBS (pH 6.0) was placed in the donor chamber and the receiver chamber was filled with DPBS. The volumes of donor and receptor chambers were 3 ml each for Side-Bi-Side™ diffusion cells and 0.5 ml and 1.5 ml respectively for Transwell® inserts. […] The samples were stored at −80° C. until analyzed HPLC. All experiments were performed at 37° C. […] The concentration dependent uptake of glycylsarcosine was studied using [^3H] […] For Dixon plots and Dose Response studies [^3H] […] Following incubation, the cell monolayers were washed three times with ice-cold HEPES buffer to terminate the uptake experiment. After the washings cells were lysed overnight using 1 ml 0.1% (w/v) Triton X-100 in 0.3 N NaOH at room temperature. Aliquots (500 μl) from each well were then transferred to scintillation vials containing 5 ml scintillation cocktail (Fisher Scientific, Fairlawn, N.J.). […] The amount of protein in the cell lysate was measured by the BioRad protein estimation kit using bovine serum albumin as standard (BioRad Protein estimation Kit, Hercules, Calif.). Analytical Procedures: All samples were assayed using HPLC. […] The column used was a C18 Luna column 4.6×250 mm (Phenomenex). The mobile phase consisted of a mixture of buffer and an organic modifier. The percentage of organic phase was varied in order to elute compounds of interest.

in vitro = conditions: human, Caco-2, pH 7.4
Caco-2 cell suspension = Caco-2 cell suspension at pH 7.4; * = no intact drug detected during the experiment
[1] = Corneal permeation across freshly excised rabbit cornea; conditions: New Zealand albino
[2] = tested on: oligopeptide transporter on the rabbit cornea; conditions: +10 mM of the ester

**Q.** Which “Vmax of Gly-Sar uptake in presence of the drug” value (hPEPT1; Gly-Sar with drug (10 mM), Lineweaver-Burk) does the source give for `CC(C)C(NC(=O)C(N)Cc1ccc(O)cc1)C(=O)OCCOCn1cnc2c(=O)[nH]c(N)nc21` (stereo not drawn) [Tyr-Val-ACV] here?
**A.** 0.091 ± 0.07 µmol/min/mg

**Q.** And the Ki (hPEPT1; Lineweaver-Burk)?
**A.** 4.11 ± 0.32 mM

**Q.** What about the Ki (hPEPT1; Michaelis-Menten) of the same molecule?
**A.** 4.96 ± 0.97 mM

**Q.** And the half-life at 0.2 mM (in vitro)?
**A.** 6.9 ± 0.3 min

**Q.** What about the “10^2 × kobs” value (Caco-2 cell suspension) of the same molecule?
**A.** 10.1 ± 0.46 min^−1mg^−1 protein

**Q.** And the Papp at 3 h [1]?
**A.** 7.19 ×10⁻⁶ cm/s

**Q.** And the “hydrolytic rate constant k” value (Aqueous Humor)?
**A.** 2.3 (±0.11) k × 10^3 min^−1 mg^−1 protein

**Q.** And the “hydrolytic rate constant k” value (Cornea homogenate)?
**A.** 4.9 (±0.69) k × 10^3 min^−1 mg^−1 protein

**Q.** What about the “hydrolytic rate constant k” value (Iris-Ciliary Body homogenate) of the same molecule?
**A.** 5.3 (±0.74) k × 10^3 min^−1 mg^−1 protein

**Q.** And the “hydrolytic rate constant k” value (Lens homogenate)?
**A.** 3.1 (±0.63) k × 10^3 min^−1 mg^−1 protein

**Q.** What about the “hydrolytic rate constant k” value (Vitreous Humor) of the same molecule?
**A.** 1.7 (±0.56) k × 10^3 min^−1 mg^−1 protein

**Q.** And the “Papp (% Control) of [3H] Val-ACV” value [2]?
**A.** 31.1 (±9.5) % Control
